Measured values: US20080194499A1, “Composition for selective serotonin reuptake inhibition and process thereof” (priority 2007, published 2008)

What was measured:
Type in all cases: in vivo, Swiss albino mice
[1] = test system: mice; test: Locomotor activity in mice (Actophotometer)
Description: Effect of Test Compound on Locomotor Activity in Mice This test is conducted to rule out the sedative aspect of the anti-depressants. Besides, it can also eliminate certain muscle relaxant effects of the drug. Swiss albino mice are tested in a locomotors chamber with laser sensors to check their movements. The locomotors score is a direct function of the mobility of the animal. Decrease in mobility could be due to sedative effect and muscle relaxant effect. Swiss albino mice of either sex weighing 25-30 g would be housed in plastic cages for at least 10 days prior to testing. Animals would be allowed to adapt to the testing environment for 1 hr before testing. […] For the test the mice would be individually placed in Actophotometer.

[2] = test system: mice; test: Locomotor activity test after reserpine administration
Description: The intra-peritoneal administration of reserpine (5 mg/kg, i.p.) in mice leads to reduce locomotor activity which can be antagonized by antidepressants, MAO-inhibitors and central stimulants. Male Swiss albino mice weighing 25-30 g would be used.

[3] = test system: re uptake of serotonin; test: 5-Hydroxytryptophan (L 5-HTP) potentiation in mice; settings: 64 mg/kg p.o.
Description: 5-Hydroxytryptophan (L 5-HTP) Potentiation in Mice
Several antidepressant agents potentiate serotonin effects by a block of the re uptake of serotonin. 5-Hydroxytryptophan is used as the precursor of serotonin.
Groups of 6 Swiss albino mice (25-30 g) would be used. […] The mice would be then placed into glass bell jars and the number of head twitches would be counted in five 2-min intervals (between 14 and 16, 24 and 26, 34 and 36, 44 and 46 and 54 and 56 min).

[4] = test system: mice; test: Forced swim test; settings: 100 mg/kg p.o.
Description: Mice forced to swim in a restricted space from which they cannot escape are induced to a characteristic behavior of immobility.
Male Swiss albino mice weighing 25-30 g would be brought into the laboratory at least one day before the experiment and would be housed separately in cages. Mice would be individually forced to swim inside a vertical Plexiglas cylinder (25×23 cm) containing 12 cm of water maintained at 25° C.
After 2-3 min activity begins to subside and to be interspersed with phases of immobility or floating of increasing length. After 5-6 min immobility reaches a plateau where the mice remain immobile for approximately 80% of the time. After 15 min in the water the mice would be removed and would be allowed to dry in a heated enclosure (32° C.) before being returned to their home cages. They would again be placed in the cylinder 24 hr later and the total duration of immobility would be counted for the last 4 min of 6 min test session. An animal is judged to be immobile whenever it remains floating passively in the water in a slightly hunched but upright position, its nose just above the surface.

[5] = test system: mice; test: Tail suspension test in mice; settings: 64 mg/kg p.o.
Source text: Effect of Test Compound on Tail Suspension in Mice
This test is used to evaluate potential antidepressants by determining the percentage decrease in immobility in rodents. […] Clinically effective anti-dependents reduce the immobility that mice display after active and unsuccessful attempts to escape when suspended by tail.
Swiss albino mice of either sex weighing 25-30 g would be housed in plastic cages for at least 10 days prior to testing. Animals would be allowed to adapt to the testing environment for 1 hr before testing. […] For the test, the mice would be suspended on the edge of a shelf 58 cm above a tabletop by adhesive tape placed approximately 1 cm from the tip of the tail. The duration of immobility would be recorded for a period of 6 min continuously. Mice are considered immobile when they hang passively and completely motionless for at least […].
The percentage of animals showing the passive behavior is counted and compared with vehicle treated controls using various doses.

[6] = test system: mice; test: Forced swim test after reserpine administration
Description: Reserpine Antagonism Depletion of biogenic amines in brain induces not only catalepsy but also hypothermia in rodents. The decrease of body temperature induced by reserpine is antagonized by antidepressants, MAO-inhibitors and central stimulants. Reserpine also decreases the levels of brain neuroamines like serotonin. […] Forced Swim Test after Reserpine Administration Male Swiss albino mice weighing 25-30 g would be used. All the animals would be Pre trained individually to swim for 15 minutes in vertical plexiglass cylinder (25×23 cm) containing 12 cm of water maintained at 25° C. They would be injected with 5 mg/kg reserpine i.p. after 20 hr of pretraining.

Structure (SMILES) | TOTAL LOCOMOTOR ACTIVITY COUNTS ([1]; 64 mg/kg p.o., 60 min before test, 10 min count) | % INCREASE IN LOCOMOTOR ACTIVITY ([1]; 64 mg/kg p.o., vs vehicle group) [%] | sedative effect (in words) ([1]; mice, locomotor activity test) | % INCREASE IN LOCOMOTOR ACTIVITY ([2]; 64 mg/kg oral, vs reserpine group) [%] | TOTAL NO OF HEAD TWITCHES MEAN ± SEM ([3]; 60 min before 75 mg/kg i.p. 5-HTP) | % INCREASE IN NO OF HEAD TWITCHES ([3]; vs vehicle group) [%] | TOTAL IMMOBILITY TIME ([4]; one hour before test, last 4 min of 6 min session) [s] | % DECREASE IN IMMOBILITY ([4]; vs vehicle group) [%] | TOTAL IMMOBILITY TIME ([5]; 60 min before test, 6 min recording) [s] | % DECREASE IN IMMOBILITY ([5]; vs vehicle group) [%] | TOTAL IMMOBILITY TIME ([6]; 100 mg/kg oral, 4 h after reserpine 5 mg/kg i.p., 6 min swim) [s] | % DECREASE IN IMMOBILITY ([6]; 100 mg/kg oral, vs reserpine group) [%] | TOTAL LOCOMOTOR ACTIVITY COUNTS ([2]; reserpine 5 mg/kg i.p. alone) | TOTAL IMMOBILITY TIME ([6]; reserpine 5 mg/kg i.p. alone) [s]
CN(C)CCCN1c2ccccc2CCc2ccccc21 [Imipramine] | 127.00 ± 06.90 | −38.80 | induces sedation | 079.91 | 13.25 ± 2.477 | −38.73 | 45.17 ± 4.450 | 71.44 | 90.90 ± 7.690 | 51.88 | 063.57 ± 3.320 | 71.24 | – | –
COC(=O)[C@H]1[C@H]2C[C@@H]3c4[nH]c5cc(OC)ccc5c4CCN3C[C@H]2C[C@@H](OC(=O)c2cc(OC)c(OC)c(OC)c2)[C@@H]1OC [Reserpine] | – | – | – | – | – | – | – | – | – | – | – | – | 121.17 ± 06.112 | 221.60 ± 6.793
